Tests used:
Mus musculus = experiment: Tested in vivo for the inhibition of LTA -induced neutrophil accumulation into pleural cavity of mice at a dose of 30 mg/kg; format: functional
E-selectin = biological target: T1, E-selectin (Homo sapiens, UniProt P16581); experiment: Tested in vitro to inhibit cell adhesion of HL-60 cells to recombinant human soluble Selectin E; format: cell-based
T1 sequence (P16581 whole entry): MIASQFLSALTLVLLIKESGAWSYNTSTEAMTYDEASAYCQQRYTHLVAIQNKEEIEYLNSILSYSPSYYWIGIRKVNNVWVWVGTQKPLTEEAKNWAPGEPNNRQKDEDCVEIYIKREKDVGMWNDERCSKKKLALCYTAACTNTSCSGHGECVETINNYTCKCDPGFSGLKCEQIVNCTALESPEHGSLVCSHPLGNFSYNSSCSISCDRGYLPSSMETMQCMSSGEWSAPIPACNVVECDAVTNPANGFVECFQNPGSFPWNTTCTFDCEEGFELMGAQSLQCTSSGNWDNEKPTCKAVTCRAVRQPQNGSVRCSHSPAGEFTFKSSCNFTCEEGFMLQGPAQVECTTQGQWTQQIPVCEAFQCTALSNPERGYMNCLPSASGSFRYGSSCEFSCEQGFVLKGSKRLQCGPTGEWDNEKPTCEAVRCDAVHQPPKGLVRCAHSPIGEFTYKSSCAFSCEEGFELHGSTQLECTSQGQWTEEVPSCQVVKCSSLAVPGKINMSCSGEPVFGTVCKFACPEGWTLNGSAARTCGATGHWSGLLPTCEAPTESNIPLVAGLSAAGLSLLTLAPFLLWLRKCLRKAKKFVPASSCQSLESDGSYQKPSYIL

IC50 (E-selectin)	Compound	inhibition in vivo at 30 mg/kg (Mus musculus)
1500 mg/L	CCO[C@@H]1O[C@@H](CO)[C@@H](O[C@@H]2O[C@@H](CO)[C@H](O)[C@H](O[C@]3(C(=O)O)C[C@@H](O)[C@@H](NC(C)=O)[C@H]([C@H](O)[C@H](O)CO)O3)[C@@H]2O)[C@H](O[C@@H]2O[C@@H](C)[C@@H](O)[C@H](O)[C@@H]2O)[C@@H]1NC(C)=O	38%
100 mg/L	C=CC(=O)NCCCCCCO[C@@H]1O[C@@H](CO)[C@@H](O[C@@H]2O[C@@H](CO)[C@H](O)[C@H](O[C@]3(C(=O)[O-])C[C@@H](O)[C@@H](NC(C)=O)[C@H]([C@H](O)[C@H](O)CO)O3)[C@@H]2O)[C@H](O[C@@H]2O[C@@H](C)[C@@H](O)[C@H](O)[C@@H]2O)[C@@H]1NC(=O)c1ccc2ccccc2c1.[Na+]	35%
